Measurements reported in US20110098177A1, “METHODS AND COMPOSITIONS OF PLANT MICRONUTRIENTS” (NOVUS INTERNATIONAL INC., priority 2006, published 2011).
“Also recorded” adds a separate entry of the source.

Experiments:
Assay type in all cases: in vivo
Tygress tomato plants [1] = assay: Nutrient concentration of tomato fruits at 10 WAT, open field (Examples 7-10)
Protocol: (§1) The following experiments were performed in open-field plots during the spring of 2008 at GCREC, Balm, University of Florida. Four products delivering Zn (BIOX-Z), Mn (BIOX-M), Cu (BIOX-Cu), and Fe (BIOX-Fe) were compared to other micronutrient supplement formulations in tomato and bell pepper plants.
(§2) The plot sizes for the tomato plants were 30-ft plots (15 plants per plot) and 15-ft plots were used for the bell pepper plants (30 plants per plot). Crop set-up, procedures and variables were as follows.
(§3) Transplants of ‘Tygress’ tomato plants and ‘Patriot’ bell pepper plants in the 4-true leaf stage (about 6 inches tall) were planted in raised beds in open-field plots. The cross-section of each raised bed was 28 inches wide at the top, 32 inches wide at the base, and 8 inches tall. Irrigation and non-micronutrient fertilizer were provided daily through two drip lines per bed (0.45 gal/100 ft bed/min) at recommended rates for tomato and bell pepper production in Florida. […] The height of the plants for each of the treatment groups was measured at 3 weeks after transplantation (WAT), just prior to treatment with the experimental foliar fertilizers.
(§4) All foliar fertilizers except BIOX-CM were applied to the various treatment groups at 3 weeks after transplantation (WAT) and again at 5 WAT. The BIOX-CM treatment was applied at 4 and 5 WAT. The working water volume was 60 gal/acre and a non-ionic surfactant (Ad-Spray 80) was added in the amount of 2 pints/100 gal water. All plots were sprayed with sprayers pressurized at 25 psi and the canopies of both crops were covered with the micronutrient solutions. Treated plots were isolated during foliar fertilizer application to avoid the cross-contamination of other treatments on adjoining plots.
(§5) Leaf samples were collected from the most recent mature leaves from each plant at 6 WAT (2 weeks after initial treatment). Foliar tissue analysis was performed by a commercial laboratory to determine the concentration of N, P, K, Mg, Ca, B, Zn, Mn, Fe, and Cu. Tomato marketable fruit weights were collected at 10 and 12 WAT, and the fruits were graded according to USDA standards. Pepper marketable fruit weights were determined beginning at 5 WAT over 5 weekly harvests. Fruit mineral analysis (N, P, K, Mg, Ca, B, Zn, Mn, Fe, and Cu) was performed on samples from the tomato harvest.
(§6) The experimental design was a randomized complete block design with 5 replications for each treatment. All comparison data were analyzed using a general linear model and the means of each treatment were separated with a Fisher's protected LSD test at the 5% significance level.

Tygress tomato plants [2] = assay: Marketable yield, open-field tomato (Examples 7-10)
Protocol: as §1, §2, §3, §4, §5, §6

[3] = tested on: Patriot bell pepper plants; assay: Marketable yield, open-field bell pepper (Examples 7-10)
Protocol: as §1, §2, §3, §4, §5, §6

Tygress tomato plants [4] = assay: Foliar nutrient concentration at 6 WAT, open-field tomato (Examples 7-10)
Protocol: as §1, §2, §3, §4, §5, §6

Aristotle bell pepper = conditions: in vivo
Protocol: (§7) The following experiments were performed in a green house during the fall of 2007 at GCREC, Balm, University of Florida. Fifteen products, at 3 different application rates were examined. The plot size was 2-gallon pots. Crop set-up, procedures and variables were as follows.
(§8) Transplants of ‘Florida-47’ tomato and ‘Aristotle’ bell pepper plants in the 4-true leaf stage (about 6 inches tall) were planted in 2-gal pots on Aug. 27, 2007. Pots were filled with a commercially available planting medium. This medium was selected based on the mineral composition of the products to be applied without providing significant nutritional inputs to the crops. Irrigation was provided with drip lines delivering between 0.50 and 0.33 gal/day/pot for tomato and bell pepper, respectively, and the crops were irrigated three times per day. No foliar pesticides were necessary.
(§9) There were four control treatments corresponding to each target micronutrient in which non-Fe, non-Mn, non-Zn or non-Cu pots received all other essential nutrients under non-limiting conditions.
(§10) Treatments were applied at three rates (high, medium and low) obtained from the estimated concentration of Zn, Fe, Cu, and Mn foliarly-applied in tomato and bell pepper in field situations (Table 1). Products were weighed and dissolved in 200 ml of deionized water with a non-ionic surfactant and applied to the newly-matured open leaves of each crop at 3 and 7 weeks after transplant (WAT). Treated pots were isolated during application to avoid cross-contamination of other treatments.
(§11) Medium nutrient concentration was determined 1 week before treatment. The mineral composition of the medium was 26.8 ppm NH4—N, 49 ppm NO3—N, 15.8 ppm P, 91.2 ppm K, 82.3 ppm Ca, 58.2 ppm Mg, 23.9 ppm Na, 125.6 ppm S, 1.33 ppm Fe, 0.39 ppm Mn, 0.35 ppm Zn, 0.05 pp, Cu, 0.04 ppm B, 0 ppm Mo, 0.73 ppm Al, and 12.1 ppm Si. The pH of the medium was 5.36 and the electric conductivity was 1.38 mS/cm. The foliar tissue analysis was performed at 6 WAT and the concentration of N, P, K, Mg, Ca, S, B, Zn, Mn, Fe, and Cu was determined by a commercial laboratory. Plant toxicity was determined at 4 WAT by using a 0-10 visual scale, where 0=no visible damage and 10=total plant death. Marketable fruit weight was collected 2 times in bell pepper and 4 times in tomato following USDA standards.
(§12) Data were analyzed using a general linear model, and means were separated using orthogonal contrasts at the 5% significance level.

Florida-47 tomato = conditions: in vivo
Protocol: as §7, §8, §9, §10, §11, §12

[5] = tested on: Patriot bell pepper plants; assay: Foliar nutrient concentration at 6 WAT, open-field bell pepper (Examples 7-10)
Protocol: as §1, §2, §3, §4, §5, §6

Tygress tomato plants [6] = assay: Foliar nutrient concentration 2 weeks after treatment, greenhouse tomato (Examples 4-6)
Protocol: (§13) The following experiments were performed in a green house during the fall of 2008 and spring of 2009 at GCREC, Balm, University of Florida. Crop set-up, procedures and variables were as follows.
(§14) Transplants of Tygress' tomato plants were planted in 2-gallon pots filled with commercial planting medium with nutrient concentration of Fe, Zn, Mn, Cu being negligible and insufficient for crop growth. Irrigation and non-micronutrient fertilizer were provided daily through microsprinklers at recommended rates for tomato production in Florida. No pesticides were used. Treatments were as described in Tables 4, 5 and 6 below.
(§15) Treatments were applied at 5 WAT (weeks after transplanting) using a water volume of 200 mL/plant. A non-ionic surfactant was added. Foliar tissue analysis was performed at 3 and 7 WAT on the non-applied newest leaves. The concentrations of N, P, K, Mg, Ca, B, Zn, Mn, Fe, and Cu in the foliar tissue were determined from foliar analysis by a commercial laboratory at 2 weeks before treatment and again at 2 weeks after treatment.
(§16) Deionized water was used for foliar applications, and other nutrients were applied as appropriate under non-limiting conditions. Marketable fruit were collected three times during the growing season, starting at 10 WAT (5 weeks after the initial treatment). Tomato fruit was graded as extra-large, large and medium. Non-marketable fruit were harvested and number and weight recorded but not sized.
(§17) Experimental design was a randomized complete block design with 6 replications. Data were analyzed using a general linear model, and means were separated using an LSD test at the 5% significance level.

Tygress tomato plants [7] = assay: Yields of tomato fruits, greenhouse (Examples 4-6)
Protocol: as §13, §14, §15, §16, §17

[8] = 10 WAT, open field, product rate as Table 17
[9] = open field, lb/acre/season: BIOX-Z 1.3, Cu 6.7, M 23.0, Fe 3.2, INC 4.0, INZ 0.6, CM 10.0, GZ 1.0, GF 4.0, EDZ 1.4, EDM 23.0
[10] = 6 WAT, open field, product rate as Table 17
[11] = Mn 2.0 lb/acre, 2 weeks after Mn treatment

O=S(=O)([O-])[O-].[Zn+2] [BIOX-INZ, zinc sulfate]
B concentration of tomato fruits (Tygress tomato plants [1]; in vivo): 21 ppm
Cu concentration of tomato fruits (Tygress tomato plants [1]; in vivo): 21 ppm
Fe concentration of tomato fruits (Tygress tomato plants [1]; in vivo): 85 ppm
K concentration of tomato fruits (Tygress tomato plants [1]; in vivo): 7.5%
Mg concentration of tomato fruits (Tygress tomato plants [1]; in vivo): 0.34%
Mn concentration of tomato fruits (Tygress tomato plants [1]; in vivo): 38 ppm
N concentration of tomato fruits (Tygress tomato plants [1]; in vivo): 4.2%
P concentration of tomato fruits (Tygress tomato plants [1]; in vivo): 0.59%
Zn concentration of tomato fruits (Tygress tomato plants [1]; in vivo): 496 ppm
Marketable yield, Tomato (Tygress tomato plants [2]; in vivo): 15.6 ton/acre
Marketable yield, Bell Pepper ([3]; in vivo): 6.9 ton/acre
Foliar B concentration of tomato plants (Tygress tomato plants [4]; in vivo): 41 ppm
Foliar Cu concentration of tomato plants (Tygress tomato plants [4]; in vivo): 358 ppm
Foliar Fe concentration of tomato plants (Tygress tomato plants [4]; in vivo): 71 ppm
Foliar K concentration of tomato plants (Tygress tomato plants [4]; in vivo): 5.7%
Foliar Mg concentration of tomato plants (Tygress tomato plants [4]; in vivo): 0.58%
Foliar Mn concentration of tomato plants (Tygress tomato plants [4]; in vivo): 231 ppm
Foliar N concentration of tomato plants (Tygress tomato plants [4]; in vivo): 4.8%
Foliar P concentration of tomato plants (Tygress tomato plants [4]; in vivo): 0.18%
Foliar Zn concentration of tomato plants (Tygress tomato plants [4]; in vivo): 323 ab ppm
Foliar Zn concentration of tomato plants, statement (Tygress tomato plants [4]; in vivo): highest foliar concentration of Zn
Pepper toxicity (Aristotle bell pepper): 0
Tomato toxicity (Florida-47 tomato): 0
Foliar B concentration of bell pepper plants ([5]; in vivo): 57 ppm
Foliar Cu concentration of bell pepper plants ([5]; in vivo): 385 ppm
Foliar Fe concentration of bell pepper plants ([5]; in vivo): 116 ppm
Foliar K concentration of bell pepper plants ([5]; in vivo): 3.2%
Foliar Mg concentration of bell pepper plants ([5]; in vivo): 0.53%
Foliar Mn concentration of bell pepper plants ([5]; in vivo): 303 ppm
Foliar N concentration of bell pepper plants ([5]; in vivo): 3.9%
Foliar P concentration of bell pepper plants ([5]; in vivo): 0.22%
Foliar Zn concentration of bell pepper plants ([5]; in vivo): 64 b ppm
B concentration in tomato leaves (Tygress tomato plants [6]; in vivo): 24 ppm
Cu concentration in tomato leaves (Tygress tomato plants [6]; in vivo): 5 ppm
Fe concentration in tomato leaves (Tygress tomato plants [6]; in vivo): 97 ppm
Foliar Zn concentration (Tygress tomato plants [6]; in vivo): 768 a ppm
K concentration in tomato leaves (Tygress tomato plants [6]; in vivo): 3.5%
Mg concentration in tomato leaves (Tygress tomato plants [6]; in vivo): 0.3%
Mn concentration in tomato leaves (Tygress tomato plants [6]; in vivo): 55 ppm
N concentration in tomato leaves (Tygress tomato plants [6]; in vivo): 3.6%
P concentration in tomato leaves (Tygress tomato plants [6]; in vivo): 0.4%
Marketable yield (Tygress tomato plants [7]; in vivo): 3.7 a lb/plant

EDTA chelated manganese [BIOX-EDM]
Nutrient concentrations in tomato fruits, statement (Tygress tomato plants [1]; 10 WAT, open field): significant increases in micronutrient concentrations of Zn, Mn, Fe, and Cu; also recorded: highest Mn concentration in the resulting tomato fruit
B concentration of tomato fruits (Tygress tomato plants [1]; [8]): 24 ppm
Ca concentration of tomato fruits (Tygress tomato plants [1]; [8]): 0.2%
Cu concentration of tomato fruits (Tygress tomato plants [1]; [8]): 27 a ppm
Fe concentration of tomato fruits (Tygress tomato plants [1]; [8]): 110 a ppm
K concentration of tomato fruits (Tygress tomato plants [1]; [8]): 8.6%
Mg concentration of tomato fruits (Tygress tomato plants [1]; [8]): 0.39%
Mn concentration of tomato fruits (Tygress tomato plants [1]; [8]): 60 a ppm
N concentration of tomato fruits (Tygress tomato plants [1]; [8]): 4.3%
P concentration of tomato fruits (Tygress tomato plants [1]; [8]): 0.63%
Zn concentration of tomato fruits (Tygress tomato plants [1]; [8]): 939 a ppm
Marketable yield, Tomato (Tygress tomato plants [2]; [9]): 14.6 b ton/acre
Marketable yield, Bell Pepper [3, 9]: 7.6 ton/acre
Foliar Zn concentration of tomato plants, statement (Tygress tomato plants [4]; 6 WAT, open field): significant increase
Foliar concentration of K of tomato plants compared to control, statement (Tygress tomato plants [4]; 6 WAT, open field): significant increase
Foliar concentration of Mn of tomato plants, statement (Tygress tomato plants [4]; 6 WAT, open field): significant increase
Foliar concentration of P of tomato plants compared to control, statement (Tygress tomato plants [4]; 6 WAT, open field): significant decrease
Foliar B concentration of tomato plants (Tygress tomato plants [4]; [10]): 60 ppm
Foliar Ca concentration of tomato plants (Tygress tomato plants [4]; [10]): 2.2%
Foliar Cu concentration of tomato plants (Tygress tomato plants [4]; [10]): 409 ppm
Foliar Fe concentration of tomato plants (Tygress tomato plants [4]; [10]): 100 ppm
Foliar K concentration of tomato plants (Tygress tomato plants [4]; [10]): 6.2 a %
Foliar Mg concentration of tomato plants (Tygress tomato plants [4]; [10]): 0.82%
Foliar Mn concentration of tomato plants (Tygress tomato plants [4]; [10]): 348 b ppm
Foliar N concentration of tomato plants (Tygress tomato plants [4]; [10]): 4.9%
Foliar P concentration of tomato plants (Tygress tomato plants [4]; [10]): 0.22 ab %
Foliar Zn concentration of tomato plants (Tygress tomato plants [4]; [10]): 333 a ppm
Foliar B concentration of bell pepper plants [5, 10]: 64 ppm
Foliar Ca concentration of bell pepper plants [5, 10]: 4.4%
Foliar Cu concentration of bell pepper plants [5, 10]: 411 ppm
Foliar Fe concentration of bell pepper plants [5, 10]: 138 ppm
Foliar K concentration of bell pepper plants [5, 10]: 3.6%
Foliar Mg concentration of bell pepper plants [5, 10]: 0.52%
Foliar Mn concentration of bell pepper plants [5, 10]: 563 ppm
Foliar N concentration of bell pepper plants [5, 10]: 4.4%
Foliar P concentration of bell pepper plants [5, 10]: 0.28%
Foliar Zn concentration of bell pepper plants [5, 10]: 67 ppm
B concentration in tomato leaves (Tygress tomato plants [6]; [11]): 22 ppm
Ca concentration in tomato leaves (Tygress tomato plants [6]; [11]): 0.6%
Cu concentration in tomato leaves (Tygress tomato plants [6]; [11]): 5 ppm
Fe concentration in tomato leaves (Tygress tomato plants [6]; [11]): 115 ppm
K concentration in tomato leaves (Tygress tomato plants [6]; [11]): 3.3%
Mg concentration in tomato leaves (Tygress tomato plants [6]; [11]): 0.3%
N concentration in tomato leaves (Tygress tomato plants [6]; [11]): 3.3%
P concentration in tomato leaves (Tygress tomato plants [6]; [11]): 0.5%
Zn concentration in tomato leaves (Tygress tomato plants [6]; [11]): 32 ppm
Foliar Mn concentration (Tygress tomato plants [6]; Mn 2.0 lb/acre, tomato leaves 2 weeks after Mn treatment): 78.5 a ppm
Marketable tomato yield compared with non-treated control (in words) (Tygress tomato plants [7]; BIOX-M at 1.23 lb/acre or more, BIOX-EDM at 2.0 lb/acre, Mn-sulfate at 1.0 lb/acre): significantly higher than the non-treated control
Marketable yield (Tygress tomato plants [7]; Mn 2.0 lb/acre, tomato fruits): 4.4 a lb/plant
